For 52 compounds, IC50 results are on record in ChEMBL document CHEMBL1857833, “Screening and optimization of specific chemical series against human African Trypanosomiasis (HAT)”.

In brackets after ≈: the same amount, converted by molar mass. Several values for one entry are separate records, joined by “and”; a condition that tells them apart may be missing. Equal entries are not always repeated.

For data set [1], the system named is Trypanosoma brucei. Briefly: DNDI: Inhibition of Human African Trypanosomiasis, SBRI 427, in vitro. It is filed as functional, organism-based.
Data set [2] can be described thus: DNDI: Cytotoxicity against L929 mouse fibroblasts, CYTO-SP, 24 hour. The class given is toxicity, cell-based. To be noted: mouse, L929 mouse fibroblasts.
Data set [3] can be described thus: DNDI: Cytotoxicity against L929 mouse fibroblasts, 72 hour. As to conditions: mouse, L929 mouse fibroblasts. The class given is toxicity, cell-based.
Where [4] appears, read: Trypanosoma brucei, SBRI 427, read-out: IC50.

With `Cc1cc(C)cc(Oc2ccc(/C(=N/O)NC3CCC3)cn2)c1`, the half-inhibitory concentration (IC50) in data set [1] (setting [4]) came to 0.59 µg/mL (≈ 1.89 µM). The IC50 at 24 h in data set [2] is greater than 50 µg/mL.
In the case of `Cc1cc(C)cc(Oc2ccc(/C(=N/O)NC3CCCC3)cn2)c1`, in data set [1] (setting [4]), the IC50 was found to be 0.59 µg/mL (≈ 1.81 µM). In data set [2], this compound returned an IC50 at 24 h of less than 50 µg/mL.
Consider `CCCOc1ccc(-c2nc(CNC3CCCCCC3)co2)cc1`, for which, in data set [1] (setting [4]), the IC50 stood at 1.25 µg/mL (≈ 3.81 µM). The compound also had an IC50 at 24 h in data set [2] of 15.8 µg/mL (≈ 48.1 µM). The compound further had an IC50 at 72 h in data set [3] of less than 3.13 µg/mL.
Regarding `CSc1ccccc1Oc1ncccc1/C(=N/O)NCC1CC1`, the IC50 in data set [1] is 0.53 µg/mL and < 0.19 µg/mL. In addition, the IC50 at 24 h in data set [2] was greater than 50 µg/mL.
As to `CN(/C(=N\O)c1cccnc1OCc1cccc(F)c1)c1ccccc1`, the IC50 in data set [1] (setting [4]) stood at 1.09 µg/mL (≈ 3.1 µM). In data set [2], the half-inhibitory concentration (IC50) at 24 h is greater than 50 µg/mL.
On to `COc1ccccc1/C(N)=N/O`, for which the IC50 in data set [1] (setting [4]) was greater than 5 µg/mL. Also, in data set [2], the IC50 at 24 h was greater than 50 µg/mL.
Take `COc1ccccc1-c1noc(C(C)C)n1`: the IC50 in data set [1] (setting [4]) is greater than 5 µg/mL. In addition, in data set [2], the IC50 at 24 h was greater than 50 µg/mL.
In data set [2], `CCCC(CCC)NCc1coc(-c2ccc(OCC)cc2)n1` had an IC50 at 24 h greater than 50 µg/mL. In data set [3], this compound returned an IC50 at 72 h of 6.37 µg/mL (≈ 20.1 µM).
As for `CC1CCCC(NCc2coc(-c3ccccc3Br)n2)C1C` (stereo not drawn), in data set [1], the IC50 was 2.06 µg/mL and 0.92 µg/mL. Also, the IC50 at 24 h in data set [2] is greater than 50 µg/mL.
With `CCCNC/C(=N\O)c1ccc(OC)cc1`, the IC50 in data set [1] (setting [4]) is greater than 5 µg/mL. In addition, the half-inhibitory concentration (IC50) at 24 h in data set [2] was greater than 50 µg/mL.
For `COc1cccc(/C(=N/O)N(C(=O)C(C)C)C(=O)C(C)C)c1`, in that order: greater than 5 µg/mL and greater than 50 µg/mL.
On to `O/N=C(/NC1CCCCC1)c1ccc2ccccc2c1`, for which the IC50 in data set [1] (setting [4]) is greater than 5 µg/mL. In addition, in data set [2], the midpoint of inhibition, the IC50 at 24 h, lay at 21.1 µg/mL (≈ 78.7 µM).
Regarding `O/N=C(\NC1CCCCC1)c1cccc(-c2ccccc2)c1`, the half-inhibitory concentration (IC50) in data set [1] (setting [4]) turned out to be 2.6 µg/mL (≈ 8.83 µM). The compound also returned an IC50 at 24 h in data set [2] of 35 µg/mL (≈ 119 µM).
For the compound `CCCCc1ccc(-c2nc(C)co2)cc1`, the IC50 in data set [1] (setting [4]) was greater than 5 µg/mL. In addition, the IC50 at 24 h in data set [2] is greater than 50 µg/mL. Further, in data set [3], inhibition was half-maximal at 42.1 µg/mL (≈ 195 µM) (IC50 at 72 h).
With `CCCOc1ccc(-c2nc(CNC3[C@H]4C[C@@H]5C[C@@H](C[C@H]3C5)C4)co2)cc1` (stereo partly drawn), in data set [1] (setting [4]), the IC50 was 0.69 µg/mL (≈ 1.88 µM). In data set [2], this compound came in with an IC50 at 24 h greater than 50 µg/mL. Besides, the IC50 at 72 h in data set [3] was determined as 3.67 µg/mL (≈ 10 µM).
As to `CON(C)C(=O)c1ccccc1-c1ccccc1`, the IC50 in data set [1] (setting [4]) was greater than 5 µg/mL. The compound further yielded an IC50 at 24 h in data set [2] greater than 50 µg/mL.
`CCc1ccc(Oc2ncccc2/C(=N/O)NCc2ccccc2)cc1`: the IC50 in data set [1] (setting [4]) amounted to 1.08 µg/mL (≈ 3.11 µM). The compound further returned an IC50 at 24 h in data set [2] greater than 50 µg/mL.
With `Cc1cc(C)cc(Oc2ccc(/C(=N/O)NC3CCCCC3)cn2)c1`, the IC50 in data set [1] (setting [4]) came out at 1.08 µg/mL (≈ 3.18 µM). The IC50 at 24 h in data set [2] is greater than 50 µg/mL.
Turning to `O/N=C(\NCC1CC1)c1cccnc1Oc1ccc2ccccc2c1`, in data set [1] (setting [4]), the IC50 is 0.62 µg/mL (≈ 1.86 µM). Moreover, in data set [2], the IC50 at 24 h was greater than 50 µg/mL.
Take `Cc1cc(C)cc(Oc2ccc(/C(=N/O)NCC(C)(C)C)cn2)c1`: the IC50 in data set [1] (setting [4]) was 0.77 µg/mL (≈ 2.35 µM). The IC50 at 24 h in data set [2] is greater than 50 µg/mL.
For `CC1CCC(C)N1/C(=N\O)c1ccc(Oc2ccc3ccccc3c2)nc1` (stereo not drawn), in that order: 0.91 µg/mL (≈ 2.52 µM) and greater than 50 µg/mL.
For `O/N=C(\NC1CCCCC1)c1ccc(Br)cc1`, in that order: greater than 5 µg/mL and 38 µg/mL (≈ 128 µM).
For `COc1ccc(/C(=N/O)NCC2CCCCC2)cc1`, the IC50 in data set [1] (setting [4]) turned out to be 3.41 µg/mL (≈ 13 µM). In data set [2], the IC50 at 24 h is greater than 50 µg/mL.
As for `COc1ccc(/C(CO)=N/O)cc1`, the half-maximal inhibitory concentration (IC50) in data set [1] (setting [4]) is greater than 5 µg/mL. The IC50 at 24 h in data set [2] is greater than 50 µg/mL.
The matching figures for `COc1cccc(/C(N)=N/O)c1`: greater than 5 µg/mL and greater than 50 µg/mL.
Regarding `CC(C)c1ccc(Oc2ncccc2/C(=N/O)NCc2ccco2)cc1`, the IC50 in data set [1] (setting [4]) stood at 0.96 µg/mL (≈ 2.73 µM). The compound further showed an IC50 at 24 h in data set [2] greater than 50 µg/mL.
With `COc1ccc(C(=O)NC2CCCCC2)cc1`, in data set [1] (setting [4]), the IC50 was greater than 5 µg/mL. In data set [2], the IC50 at 24 h was greater than 50 µg/mL.
As for `COc1cccc(-c2noc(C(C)C)n2)c1`, the IC50 in data set [1] (setting [4]) was greater than 5 µg/mL. The IC50 at 24 h in data set [2] is greater than 50 µg/mL.
As for `COc1ccc(-c2noc(C(C)C)n2)cc1`, the IC50 in data set [1] (setting [4]) is greater than 5 µg/mL. Further, in data set [2], the IC50 at 24 h was greater than 50 µg/mL.
For `COc1ccc(C(=O)N(C)OC)cc1`, in that order: greater than 5 µg/mL and greater than 50 µg/mL.
Take `Cc1cc(C)cc(Oc2ccc(/C(=N/O)NCC3CC3)cn2)c1`: the IC50 in data set [1] (setting [4]) was found to be 1.02 µg/mL (≈ 3.28 µM). In data set [2], this compound yielded an IC50 at 24 h greater than 50 µg/mL.
In the case of `OC/C(=N\O)c1ccccc1`, in data set [1] (setting [4]), the IC50 is greater than 5 µg/mL. The half-inhibitory concentration (IC50) at 24 h in data set [2] is greater than 50 µg/mL.
Regarding `CC(C)c1ccc(Oc2ncccc2/C(=N/O)NC2CCc3ccccc32)cc1` (stereo not drawn), the IC50 in data set [1] (setting [4]) amounted to 0.98 µg/mL (≈ 2.53 µM). Besides, in data set [2], the IC50 at 24 h stood at 45.1 µg/mL (≈ 116 µM).
`COc1ccc(C(=O)NC2CCCCC2)c(OC)c1`: in data set [1] (setting [4]), the IC50 was greater than 5 µg/mL. This compound also showed an IC50 at 24 h in data set [2] greater than 50 µg/mL.
As for `O/N=C(\NC1CCCCC1)c1cccc(Br)c1`, the IC50 in data set [1] (setting [4]) turned out to be 3.28 µg/mL (≈ 11 µM). Moreover, half-maximal inhibition in data set [2] (IC50 at 24 h) required 39 µg/mL (≈ 131 µM).
Take `COc1cc(C)ccc1Oc1ncccc1C(=N)N`: the IC50 in data set [1] (setting [4]) was greater than 5 µg/mL. For the same compound, the IC50 at 24 h in data set [2] was greater than 50 µg/mL.
Consider `CCc1ccc(N/C(=N/O)c2ccccc2-c2ccccc2)cc1`, for which the IC50 in data set [1] (setting [4]) was 5 µg/mL (≈ 15.8 µM). Besides, in data set [2], the IC50 at 24 h came out at 15.6 µg/mL (≈ 49.4 µM).
The matching figures for `CC(C)COc1ncccc1/C(=N/O)NC1CCCC1`: 0.96 µg/mL (≈ 3.46 µM) and greater than 50 µg/mL.
Consider `O/N=C(\NC1CCCCC1)c1ccccc1F`, for which, in data set [1] (setting [4]), the IC50 stood at 3.92 µg/mL (≈ 16.6 µM). In data set [2], this compound came in with an IC50 at 24 h greater than 50 µg/mL.
As for `CCOc1ccccc1-c1nc(CNC2C[C@@H]3C[C@H]([C@H]2C)C3(C)C)co1` (stereo partly drawn), the IC50 in data set [1] worked out at 2.05 µg/mL (≈ 5.78 µM); in data set [1] (setting [4]) it was 1.05 µg/mL (≈ 2.96 µM). The compound also displayed an IC50 at 24 h in data set [2] of 27.8 µg/mL (≈ 78.4 µM).
`COc1ccc(/C(CNC(C)C)=N/O)cc1`: the IC50 in data set [1] (setting [4]) is greater than 5 µg/mL. The compound further gave an IC50 at 24 h in data set [2] greater than 50 µg/mL.
The matching figures for `COc1ccccc1/C(=N/O)N(C(=O)C(C)C)C(=O)C(C)C`: greater than 5 µg/mL and greater than 50 µg/mL.
Take `O/N=C(\NC1CCCCC1)c1cccc(F)c1`: in data set [1] (setting [4]), the IC50 was greater than 5 µg/mL. In data set [2], this compound yielded an IC50 at 24 h greater than 50 µg/mL.
On to `CCCCc1ccc(-c2nc(C(F)(F)F)co2)cc1`, for which, in data set [1] (setting [4]), the IC50 was greater than 5 µg/mL. In data set [2], this compound had an IC50 at 24 h greater than 50 µg/mL. In data set [3], this compound yielded an IC50 at 72 h of 43.8 µg/mL (≈ 163 µM).
The matching figures for `CCCOc1ccc(-c2nc(CNC3CC(C)CC(C)(C)C3)co2)cc1` (stereo not drawn): 1.37 µg/mL (≈ 3.84 µM), 15.9 µg/mL (≈ 44.5 µM) and less than 3.13 µg/mL.
Turning to `CCCOc1ccc(-c2nc(CNC[C@@H]3CC[C@H]4C[C@@H]3C4(C)C)co2)cc1`, in data set [1] (setting [4]), the IC50 was 0.74 µg/mL (≈ 2.01 µM). Also, in data set [2], the IC50 at 24 h turned out to be 16 µg/mL (≈ 43.5 µM). This compound registered an IC50 at 72 h in data set [3] of less than 3.13 µg/mL.
As to `C[C@H]1C(NCc2coc(-c3ccccc3Br)n2)C[C@@H]2C[C@H]1C2(C)C` (stereo partly drawn), the IC50 in data set [1] was 0.94 µg/mL (≈ 2.41 µM); in data set [1] (setting [4]), 1.22 µg/mL (≈ 3.13 µM). The compound also came in with an IC50 at 24 h in data set [2] of 43.2 µg/mL (≈ 111 µM).
As to `O/N=C(\NC1CCCCC1)c1ccccc1Br`, the IC50 in data set [1] (setting [4]) was greater than 5 µg/mL. In data set [2], the IC50 at 24 h is greater than 50 µg/mL.
As for `CCCCc1ccc(-c2nc(C(C)(C)C)co2)cc1`, in data set [1] (setting [4]), the IC50 was greater than 5 µg/mL. In data set [2], this compound yielded an IC50 at 24 h greater than 50 µg/mL. This compound returned an IC50 at 72 h in data set [3] of 28.7 µg/mL (≈ 112 µM).
In the case of `COc1ccc(/C(=N/O)N(C(=O)C(C)C)C(=O)C(C)C)cc1`, in data set [1] (setting [4]), the IC50 is greater than 5 µg/mL. The IC50 at 24 h in data set [2] is greater than 50 µg/mL.
As for `CN(/C(=N\O)c1cccnc1OCc1ccccc1F)c1ccccc1`, in data set [1] (setting [4]), the IC50 is 1.06 µg/mL (≈ 3.02 µM). In data set [2], the IC50 at 24 h was greater than 50 µg/mL.
`COc1ccc(C(=N)NO)cc1`: in data set [1] (setting [4]), the IC50 was greater than 5 µg/mL. In addition, the IC50 at 24 h in data set [2] was greater than 50 µg/mL.

The term IC50 denotes the point on the concentration scale where inhibition reaches its midpoint.
